Assay results published in patent US20070122395A1, “Genetic and pharmacological regulation of antidepressant-sensitive biogenic amine transporters through PKG/p38 map kinase” (Vanderbilt University, priority 2005, published 2007).
Read-outs that look alike come from different tables or passages of the source.

Experiments:
hSERT Pro339Leu (P339L) = hSERT Pro339Leu (P339L) (Homo sapiens, UniProt P31645, P339L)
Protocol: (§1) Transfection and Transport Studies. HeLa cells, maintained at 37° C. in a 5% CO2 humidified incubator, were grown in complete medium (Dulbecco's Modified Eagle's Medium (DMEM, Invitrogen), 10% fetal bovine serum, 2 mM L-glutamine, 100 units/ml penicillin, and 100 μg/ml streptomycin).
(§2) Transport, Binding, Biotinylation and Phosphorylation Studies. […] To establish levels and biosynthetic progression of hSERT protein produced from mutant cDNAs, HeLa cells were plated in 6-well dishes at 500,000 cells per well and transfected 12 h later. Twenty four hours after transfection, whole cell detergent extracts were blotted for hSERT (mAb Technologies, Inc., 1:1000) using enhanced chemiluminescence (ECL, Amersham) detection.

hSERT [1] = target: T1, hSERT (Homo sapiens, UniProt P31645); assay: [3H]5-HT transport (SERT uptake) assay in transfected HeLa cells; assay type: cell-based
T1 construct: The full-length cDNA encoding hSERT in the mammalian expression vector pcDNA3.1; expressed in transfected cells; host or cells: HeLa
Protocol: as §1, §2

hSERT Ile425Val (I425V) = target: T2, hSERT Ile425Val (I425V) (Homo sapiens, UniProt P31645, I425V); assay: as above; assay type: cell-based
T2 construct: The full-length cDNA encoding hSERT in the mammalian expression vector pcDNA3.1; expressed in transfected cells; host or cells: HeLa
Protocol: as §1, §2

[2] = test system: rat SERT expressed by RBL-2H3 cells; assay: [3H]5-HT transport assay in RBL-2H3 cells; assay type: cell-based; settings: for blockade of NECA-induced 5-HT uptake: ODQ 10 μm, NECA 1 μm; for blockade of 8-Br-cGMP stimulation of SERT: data not shown
[3] = target: T3, native SERT in RN46A cells (Rattus norvegicus, UniProt P31652); assay: [3H]5-HT transport assay in RN46A cells; assay type: cell-based; settings: for blockade of anisomycin-stimulated 5-HT uptake: SB203580, ODQ 10 μm, H8 0.1 μm
T3 construct: derived from rat E13 raphenucleus, that expresses native SERT; endogenous in cells; host or cells: RN46A cells

hSERT [4] = target: T1, hSERT; assay: [125I]RTI-55 binding to intact transfected HeLa cells (surface and total SERT); assay type: cell-based; settings: paroxetine as displacer; data not shown
[5] = test system: five hSERT variants that failed to elicit uptake increases; assay: [125I]RTI-55 surface binding to intact transfected HeLa cells, non-responsive variants; assay type: cell-based, human; settings: H8
[6] = test system: lymphocytes homozygous for the Gly variant (hSERT Gly56); assay: 5-HT uptake in genotyped lymphocyte lines; assay type: cell-based, human; settings: H8 versus 8BrcGMP; SB203580 versus anisomycin
Text: Genotyping and Lymphocyte Studies. Lymphocyte lines were derived from autistic pedigrees recruited by Susan E. Folstein (Johns Hopkins Univ), from the Autism Genetics Resource Exchange (AGRE) collection (www.agre.org/), and from the NIMH Human Genetics Initiative Repository (www.nimhgenetics.org/) at Rutgers University. DNA from lymphoblastoid cell lines was genotyped via TaqMan-based allelic discrimination, using an Applied Biosystems (Foster City, Calif.) Assay-by-Design and independently confirmed by PCR and direct sequence analysis. […] Lymphocyte were pelleted at 1500 rpm, 5 min and washed with KRH assay buffer. A total of 1×10^6 cells in triplicate were pre-warmed (37° C.) in a shaking water bath (10 min) in 12×75 polypropylene tubes in KRH buffer containing 100 μM pargyline and 100 μM ascorbic acid+/−modifiers.

[7] = test system: rat SERT expressed by RBL-2H3 cells; settings: Zhu et al., 2004a,b; cited from earlier work
p38 MAPK = assay type: cell-based, rat
Protocol: Assays of p38 MAPK Activation. […] Medium was removed by aspiration, and cells were washed once with KRH buffer and then incubated in triplicate at 37° C. in KRH buffer with or without p38 MAPK activators for 5-10 min. Assay buffer was removed, and cells were immediately fixed with fresh 4% formaldehyde (Sigma) in PBS for 20 min at room temperature and washed four times with 1×PBS containing 0.1% Triton X-100 (Sigma) (5 min per wash) prior to 1 h of blocking with Odyssey blocking buffer (Li-Cor Biosciences, Lincoln, Nebr.). RBL-2H3 cells were subsequently probed with dual phosphorylated (Thr(P) and Tyr(P)) p38 MAPK polyclonal antibody (Cell Signaling; 1:400) in Odyssey blocking buffer with gentle mixing for 2 h at room temperature. Cells were then washed four times with 1×PBS containing 0.1% Tween 20 (Sigma) for 5 min. Bound antibody was detected with fluorescence-labeled secondary antibody-Alexa Fluor® 680 (avoiding exposure to light; 1:200 in Odyssey Blocking Buffer, Molecular Probes, Inc., Eugene, Oreg.) for 1 h. After four washes with 1×PBS, 0.1% Tween 20, the plate was scanned, and the captured image of the signal was processed and quantified with the Odyssey™ Infrared Imaging System (Li-Cor Biosciences). For UV radiation to activate p38 MAPK, plates seeded with cells were placed in a UV source (UV Stratalinker 1800, Stratagene, La Jolla, Calif.) that was preset to deliver 4×10^4 μJ/cm^2 at room temperature.

SERT in RBL-2H3 cells = target: T4, SERT in RBL-2H3 cells (Rattus norvegicus, UniProt P31652); assay: [125I]RTI-55 binding to intact RBL-2H3 cells; assay type: cell-based; settings: for SERT surface density (5-HT-displaceable [125I]RTI-55 binding): anisomycin 1 μm, fostriecin 5 nM, NECA 1 μm, 10 min
T4 construct: As with rat SERT expressed by RBL-2H3 cells; host or cells: RBL-2H3 cells (intact cells, 4° C.)
Text: Binding was terminated by two rapid washes with ice-cold PBS/CM.

human NET = assay: monoamine uptake assay in transfected CHO cells; assay type: cell-based; settings: SB203580 preincubation 15 min
Protocol: Cell Culture and Transfection. […] CHO cells (ATCC, Manassas, Va.) were maintained at 37° C. in Dulbecco's MEM containing 10% fetal bovine serum, 1% L-Glu, 100 IU/ml penicillin, and 100 μg/ml streptomycin. For comparison of the response of monoamine transporters to p38 MAPK activation, CHO cells were transfected with cDNAs for hSERT, hDAT, or hNET (100 ng/well for a 24-well plate). Transfections of CHO cells were performed using TransIT-LT1 Transfection Reagent (Mirus, Madison, Wis.) according to the manufacturer's protocol (0.3 μl/well). hSERT, hDAT, or hNET cDNAs were preincubated with the reagent at ambient temperature for 30 min before being added to plated CHO cells. Cells were cultured for 24 h after transfection. The transfection mixture was removed just prior to assay.
CHO cells were plated at 20,000 cells/well 16-24 h before transfection, and the uptake assay was performed 24 h following the transfection. […] Medium was removed by aspiration, and cells were washed once with Krebs-Ringer HEPES (KRH) buffer containing 130 mM NaCl, 1.3 mM KCl, 2.2 mM CaCl2, 1.2 mM MgSO4, 1.2 mM KH2PO4, 1.8 g/liter glucose, 10 mM HEPES, pH 7.4. […] Cells were solubilized with 0.5 ml of Microscint 20 (PerkinElmer Life Sciences), and tritium-labeled monoamine accumulation was quantitated using a TopCount plate scintillation counter (PerkinElmer Life Sciences).

[8] = pretreatment, then anisomycin 1 μm 10 min, SB compounds, curcumin, PD98059, ODQ 10 μm, H8 0.1 μm, DT-2 1.0 μm, fostriecin 5 nM, MTSET 10 mM, siRNA 100 nM 48 h

T4 sequence (P31652 whole entry): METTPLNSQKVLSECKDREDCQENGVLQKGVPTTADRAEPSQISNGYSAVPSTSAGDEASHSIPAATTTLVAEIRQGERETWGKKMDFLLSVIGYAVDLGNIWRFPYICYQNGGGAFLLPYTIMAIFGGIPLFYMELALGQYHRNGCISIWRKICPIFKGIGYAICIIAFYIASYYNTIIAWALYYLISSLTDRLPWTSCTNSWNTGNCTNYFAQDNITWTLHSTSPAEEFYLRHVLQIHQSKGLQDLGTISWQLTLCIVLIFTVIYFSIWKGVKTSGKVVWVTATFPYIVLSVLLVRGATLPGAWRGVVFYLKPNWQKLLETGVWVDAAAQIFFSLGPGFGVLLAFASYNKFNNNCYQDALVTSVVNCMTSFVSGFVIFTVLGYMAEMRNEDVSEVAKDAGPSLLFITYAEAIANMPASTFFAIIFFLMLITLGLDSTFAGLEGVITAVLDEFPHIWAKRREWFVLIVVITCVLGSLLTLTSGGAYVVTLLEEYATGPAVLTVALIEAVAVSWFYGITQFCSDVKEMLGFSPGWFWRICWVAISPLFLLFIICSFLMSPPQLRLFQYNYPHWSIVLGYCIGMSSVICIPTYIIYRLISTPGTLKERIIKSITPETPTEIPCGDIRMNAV
T3 sequence (P31652 whole entry): as above

NCCc1c[nH]c2ccc(O)cc12 [5-HT, 5-hydroxytryptamine]
5-HT Vmax (hSERT Pro339Leu (P339L)): 3.0+/−1.2 % of hSERT | 5-HT Vmax (hSERT Pro339Leu (P339L); saturation kinetics): 1.2 ± 0.11 fmol/well/min | 5-HT Vmax (hSERT [1]; saturation kinetics, hSERT): 416.2+19 fmol/well/min | 5-HT Vmax (hSERT Ile425Val (I425V)): 190+/−28 % of hSERT | 5-HT Vmax (hSERT Ile425Val (I425V); saturation kinetics): 789.5+28 fmol/well/min | Km ([2]; read-out: SERT Km for 5-HT, RBL-2H3, vehicle): 1060 ± 145 nM | Km ([3]; read-out: SERT Km for 5-HT, RN46A, vehicle): 799 ± 97 nM

OO [H2O2, hydrogen peroxide]
stimulation of 5-HT transport activity [2]: stimulated 5-HT transport to a level comparable with 1 μm anisomycin

CNCCNS(=O)(=O)c1cccc2cnccc12 [H8, N-[2-(methylamino)ethy]-5-isoquinoline sulfonamide]
antagonism of 8BrcGMP stimulation of 5-HT transport (hSERT [1]): completely antagonized | total [125I]RTI-55 binding (hSERT [4]): no effects on total binding | blockade of 8BrcGMP-induced reduction in surface density [5]: completely blocked | antagonist sensitivity of stimulated 5-HT transport [6]: sensitive to H8 | blockade of NECA-induced 5-HT uptake ([2]; H8 0.1 μm, DT-2 1.0 μm): abolish | blockade of 8-Br-cGMP stimulation of SERT [2]: blocked | blockade of anisomycin-stimulated 5-HT uptake / SERT activity [2, 8]: failed to attenuate | blockade of anisomycin-stimulated 5-HT uptake ([3]; RN46A, DT-2 1.0 μm): failed to attenuate

O=C1C(Nc2ccccc2)=CC(=O)c2ncccc21 [LY83583]
blockade of anisomycin-stimulated 5-HT uptake / SERT activity [2, 8]: neither agent attenuated anisomycin stimulation | blockade of anisomycin-stimulated 5-HT uptake ([3]; RN46A, DT-2 1.0 μm): neither agent attenuated anisomycin stimulation | blockade of AR stimulation of SERT [7]: completely abolished

C[N+](C)(C)CCSS(C)(=O)=O [MTSET, [2-(Trimethylammonium)ethyl]methanethiosulfonate]
blockade of anisomycin-stimulated 5-HT uptake / SERT activity [2]: abolished

CCNC(=O)[C@H]1O[C@@H](n2cnc3c(N)ncnc32)[C@H](O)[C@@H]1O [NECA]
level of p38 MAPK phosphorylation stimulation (p38 MAPK; 5 min treatment): comparable to stimulation achieved with 8-bromo-cGMP | total p38 MAPK levels (p38 MAPK; data not shown): No changes | total SERT (paroxetine-displaceable [125I]RTI-55 binding) (SERT in RBL-2H3 cells; acute treatment): does not change | SERT surface density (5-HT-displaceable [125I]RTI-55 binding) (SERT in RBL-2H3 cells): significant increase

O=c1onc2cnc3ccccc3n12 [ODQ, 1H-(1,2,4)-oxadiazolo[4,3-a]quinoxalin-1-one]
blockade of anisomycin-stimulated 5-HT uptake / SERT activity [2]: neither agent attenuated anisomycin stimulation | blockade of NECA-induced 5-HT uptake ([2]; H8 0.1 μm, DT-2 1.0 μm): abolish | blockade of anisomycin-stimulated 5-HT uptake ([3]; RN46A, DT-2 1.0 μm): neither agent attenuated anisomycin stimulation | blockade of AR stimulation of SERT [7]: completely abolished

COc1cccc(-c2cc(=O)c3ccccc3o2)c1N [PD98059]
blockade of anisomycin-stimulated 5-HT uptake / SERT activity [2]: failed to block

Oc1ccc(-c2nc(-c3ccc(F)cc3)c(-c3ccncc3)[nH]2)cc1 [SB202190]
blockade of anisomycin-stimulated 5-HT uptake / SERT activity [2]: blocked anisomycin stimulation of SERT

CCc1nc(-c2ccc(OC)cc2)[nH]c1-c1ccncc1 [SB202474]
blockade of anisomycin-stimulated 5-HT uptake / SERT activity [2]: lacked antagonistic activity

C[S+]([O-])c1ccc(-c2nc(-c3ccc(F)cc3)c(-c3ccncc3)[nH]2)cc1 (stereo not shown) [SB203580]
blockade of anisomycin stimulation of NET (human NET): blocking stimulation back to basal levels

COC[C@@H]([C@H](O)[C@H](O)C(=O)NCC[C@H](C)c1nc(/C=C/C[C@@H]2O[C@]3(C[C@@H](O)[C@@H]2C)O[C@H]([C@H](C[C@H](O)[C@H](C)[C@H](O)[C@H](C)/C=C(C)/C(C)=C/C=C/C(C)=C\C#N)OC)[C@H](OP(=O)(O)O)C3(C)C)co1)N(C)C [calyculin A]
basal 5-HT uptake ([2]; calyculin A 20 nM): fails to diminish | blockade of anisomycin stimulation of SERT ([2]; calyculin A 20 nM, 15 min preincubation): completely blocks | 5-HT uptake at higher concentrations ([2]; calyculin A 100 nM, fostriecin higher concentrations): inhibits both basal and anisomycin-stimulated 5-HT uptake

COc1cc(/C=C/C(=O)CC(=O)/C=C/c2ccc(O)c(OC)c2)ccc1O [curcumin]
blockade of anisomycin-stimulated 5-HT uptake / SERT activity [2]: lacked antagonistic activity

C[C@@](O)(/C=C/[C@H]1CC=CC(=O)O1)[C@@H](C[C@@H](O)\C=C/C=C\C=C\CO)OP(=O)(O)O [fostriecin]
5-HT uptake at higher concentrations [2]: inhibit basal 5-HT uptake | blockade of anisomycin-stimulated 5-HT uptake / SERT activity [2]: completely blocks | SERT surface density (5-HT-displaceable [125I]RTI-55 binding) (SERT in RBL-2H3 cells): did not impact the binding | blockade of NECA-induced enhancement of SERT surface density (SERT in RBL-2H3 cells; concentration that completely blocks anisomycin stimulation): fails to block

YGRKKRRQRRRPP-LRK5H-amide [DT-2]
blockade of NECA-induced 5-HT uptake ([2]; H8 0.1 μm, DT-2 1.0 μm): abolish | blockade of 8-Br-cGMP stimulation of SERT [2]: blocked | blockade of anisomycin-stimulated 5-HT uptake / SERT activity [2, 8]: failed to attenuate | sensitivity of 8-bromo-cGMP-induced 5-HT transport to PKG antagonist ([3]; DT-2 1.0 μm): sensitive | blockade of anisomycin-stimulated 5-HT uptake ([3]; RN46A, DT-2 1.0 μm): failed to attenuate

bisindolylmaleimide [BIM]
blockade of β-PMA downregulation (hSERT [1]; BIM 1 μM): blocked
